Source: patent US6770645B2, “Pharmaceutically active compounds” (Pfizer Inc., priority 2001, dated 2004)
Where a name gives a salt, the structure may show the parent alone. Read-outs that look alike come from different tables or passages of the source.

Legend:
cGMP PDE5 = target: T1, cGMP PDE5 (Homo sapiens, UniProt O76074); assay: In vitro cGMP PDE5 inhibitory activity (IC50); assay type: biochemical
T1 construct: The required PDE enzymes were isolated from a variety of sources, including human corpus cavernosum, human platelets; from tissue; host or cells: human corpus cavernosum tissue or human platelets
Procedure: The compounds of the present invention are potent and selective cGMP PDE5 inhibitors. In vitro PDE inhibitory activities against cyclic guanosine 3′,5′-monophosphate (cGMP) and cyclic adenosine 3′,5′-monophosphate (cAMP) phosphodiesterases were determined by measurement of their IC50 values (the concentration of compound required for 50% inhibition of enzyme activity).
The required PDE enzymes were isolated from a variety of sources, including human corpus cavernosum, human platelets, human cardiac ventricle, human skeletal muscle and human and canine retina, essentially by the method of W. J. Thompson and M. M. Appleman (Biochem., 1971, 10, 311). In particular, the cGMP-specific PDE (PDE5) and the cGMP-inhibited cAMP PDE (PDE3) were obtained from human corpus cavernosum tissue or human platelets; the cGMP-stimulated PDE (PDE2) was obtained from human corpus cavernosum or human platelets; the calcium/calmodulin (Ca/CAM)-dependent PDE (PDE1) from human cardiac ventricle; the cAMP-specific PDE (PDE4) from recombinant clone or human skeletal muscle; and the photoreceptor PDE (PDE6) from canine or human retina. Phosphodiesterases 7-11 were generated from full length human recombinant clones transfected into SF9 cells.
Assays were performed either using a modification of the “batch” method of W. J. Thompson et al. (Biochem., 1979, 18, 5228) or using a scintillation proximity assay for the direct detection of AMP/GMP using a modification of the protocol described by Amersham pic under product code TRKQ7090/7100. In summary, the effect of PDE inhibitors was investigated by assaying a fixed amount of enzyme in the presence of varying inhibitor concentrations and low substrate, (cGMP or cAMP in a 3:1 ratio unlabelled to [^3H]-labeled at a conc ˜½ Km) such that IC50 ≅Ki. The final assay volume was made up to 102 μl with assay buffer [20 mM Tris-HCl pH 7.4, 5 mM MgCl2, 1 mg/ml bovine serum albumin]. Reactions were initiated with enzyme, incubated for 30-60 min at 30° C. to give <30% substrate turnover and terminated with 50 μl yttrium silicate SPA beads (containing 3 mM of the respective unlabelled cyclic nucleotide for PDEs 3, 9 and 11). Plates were resealed and shaken for 20 min, after which the beads were allowed to settle for 30 min in the dark and then counted on a TopCount plate reader (Packard, Meriden, Conn.). Radioactivity units were converted to % activity of an uninhibited control (100%), plotted against inhibitor concentration and inhibitor IC50 values obtained using the ‘Fit Curve’ Microsoft Excel extension or inhouse equivalent.

[1] = bounds for groups of Examples, read-out: IC50 values for the PDE5 enzyme
[2] = in vitro cGMP PDE5 inhibitory activity, Table 1, read-out: IC50

| Compound | melting point [°C] | IC50 (cGMP PDE5; [1]) [nM] | IC50 (cGMP PDE5; [2]) [nM] |
| --- | --- | --- | --- |
| CCCCOc1ccc(S(C)(=O)=O)cc1-c1nc2c(CC)nn(Cc3ccccn3)c2c(=O)[nH]1 (as salt: potassium) [Example 5, 5-[2-Butoxy-5-(methylsulfonyl)phenyl]-3-ethyl-1-(2-pyridinylmethyl)-1,6-dihydro-7H-pyrazolo[4,3-d]pyrimidin-7-one] | 189 to 191 | – | – |
| CCCOc1ccc(S(C)(=O)=O)cc1-c1nc2c(CC)nn(Cc3ccccn3)c2c(=O)[nH]1 (as salt: potassium) [Example 11, 3-Ethyl-5-[5-(methylsulfonyl)-2-propoxyphenyl]-1-(2-pyridinylmethyl)-1,6-dihydro-7H-pyrazolo[4,3-d]pyrimidin-7-one] | 209 to 211 | – | – |
| CCc1nn(Cc2ccccn2)c2c(=O)[nH]c(-c3cc(S(C)(=O)=O)ccc3OCC(C)C)nc12 [Example 3, 3-Ethyl-5-[2-isobutoxy-5-(methylsulfonyl)phenyl]-1-(2-pyridinylmethyl)-1,6-dihydro-7H-pyrazolo[4,3-d]pyrimidin-7-one] | 223 to 225 | < 10 | 1.5 |
| CCc1nn(Cc2ccccn2)c2c(=O)[nH]c(-c3cc(S(C)(=O)=O)ccc3OCCOC)nc12 [Example 4, 3-Ethyl-5-[2-(2-methoxyethoxy)-5-(methylsulfonyl)phenyl]-1-(2-pyridinylmethyl)-1,6-dihydro-7H-pyrazolo[4,3-d]pyrimidin-7-one] | 166 to 167 | – | – |
| CCCCOc1ccc(S(C)(=O)=O)cc1-c1nc2c(CC)nn(Cc3ccccn3)c2c(=O)[nH]1 [Example 5, 5-[2-Butoxy-5-(methylsulfonyl)phenyl]-3-ethyl-1-(2-pyridinylmethyl)-1,6-dihydro-7H-pyrazolo[4,3-d]pyrimidin-7-one] | – | < 10 | 3.5 |
| CCc1n[nH]c2c(=O)[nH]c(-c3cc(S(C)(=O)=O)ccc3OCc3ccccn3)nc12 [Example 6, 3-Ethyl-5-[5-(methylsulfonyl)-2-(2-pyridinylmethoxy)phenyl]-1,6-dihydro-7H-pyrazolo[4,3-d]pyrimidin-7-one] | 283 to 286 | – | – |
| CCc1nn(Cc2nccn2C)c2c(=O)[nH]c(-c3cc(S(C)(=O)=O)ccc3OCC(C)C)nc12 [Example 7, 3-Ethyl-5-[2-isobutoxy-5-(methylsulfonyl)phenyl]-1-[(1-methyl-1H-imidazol-2-yl)methyl]-1,6-dihydro-7H-pyrazolo[4,3-d]pyrimidin-7-one] | 253 to 254 | < 10 | 1.7 |
| CCCCOc1ccc(S(C)(=O)=O)cc1-c1nc2c(CC)n(CCN3CCOCC3)nc2c(=O)[nH]1 [Example 8, 5-[2-Butoxy-5-(methylsulfonyl)phenyl]-3-ethyl-2-[2-(4-morpholinyl)ethyl]-2,6-dihydro-7H-pyrazolo[4,3-d]pyrimidin-7-one] | 235 to 238 | < 10 | 10 |
| CCc1c2nc(-c3cc(S(C)(=O)=O)ccc3OCC(C)C)[nH]c(=O)c2nn1CCN1CCOCC1 [Example 10, 3-Ethyl-5-[2-isobutoxy-5-(methylsulfonyl)phenyl]-2-[2-(4-morpholinyl)ethyl]-2,6-dihydro-7H-pyrazolo[4,3-d]pyrimidin-7-one] | 268 to 273 | < 10 | 7.6 |
| CCc1nn(C[C@@H]2CCCN2C)c2c(=O)[nH]c(-c3cc(S(C)(=O)=O)ccc3OCC(C)C)nc12 [Example 13, 3-Ethyl-5-[2-isobutoxy-5-(methylsulfonyl)phenyl]-1-{[(2S)-1-methylpyrrolidinyl]methyl}-1,6-dihydro-7H-pyrazolo[4,3-d]pyrimidin-7-one] | 190 to 194 | < 10 | 6.3 |
| CCc1c2nc(-c3cc(S(C)(=O)=O)ccc3OCC(C)C)[nH]c(=O)c2nn1Cc1cccnn1 [Example 15, 3-Ethyl-5-[2-isobutoxy-5-(methylsulfonyl)phenyl]-2-(3-pyridazinylmethyl)-2,6-dihydro-7H-pyrazolo[4,3-d]pyrimidin-7-one] | 244 to 247 | < 10 | 7.3 |
| CCc1nn(Cc2cccnn2)c2c(=O)[nH]c(-c3cc(S(C)(=O)=O)ccc3OCC(C)C)nc12 [Example 16, 3-Ethyl-5-[2-isobutoxy-5-(methylsulfonyl)phenyl]-1-(3-pyridazinylmethyl)-1,6-dihydro-7H-pyrazolo[4,3-d]pyrimidin-7-one] | 231 to 234 | < 10 | 9.8 |
| CCc1c2nc(-c3cc(S(C)(=O)=O)ccc3OCC(C)C)[nH]c(=O)c2nn1Cc1ccccn1 [Example 17, 3-Ethyl-5-[2-isobutoxy-5-(methylsulfonyl)phenyl]-2-(2-pyridinylmethyl)-2,6-dihydro-7H-pyrazolo[4,3-d]pyrimidin-7-one] | 235 to 238 | < 10 | 4.8 |
| CCc1nn(C2CN(C(C)C)C2)c2c(=O)[nH]c(-c3cc(S(C)(=O)=O)ccc3OCC(C)C)nc12 [Example 20] | 206 to 209 | – | 13.7 |
| CCc1c2nc(-c3cc(S(C)(=O)=O)ccc3OCC(C)C)[nH]c(=O)c2nn1C1CCN(C)CC1 [Example 21, 3-Ethyl-5-[2-isobutoxy-5-(methylsulfonyl)phenyl]-2-(1-methyl-4-piperidinyl)-2,6-dihydro-7H-pyrazolo[4,3-d]pyrimidin-7-one] | 292 to 295 | – | 12.5 |
| CCc1c2nc(-c3cc(S(C)(=O)=O)ccc3OCC(C)C)[nH]c(=O)c2nn1C1CCN(C(C)C)CC1 [Example 22, 3-Ethyl-5-[2-isobutoxy-5-(methylsulfonyl)phenyl]-2-(1-isopropyl-4-piperidinyl)-2,6-dihydro-7H-pyrazolo[4,3-d]pyrimidin-7-one] | 273 to 275 | – | 13.4 |
| CCCOc1ncc(S(C)(=O)=O)cc1-c1nc2c(CC)nn(C[C@@H]3CCCN3C)c2c(=O)[nH]1 [Example 23, 3-Ethyl-1-{[(2S)-1-methylpyrrolidinyl]methyl}-5-[5-(methylsulfonyl)-2-propoxy-3-pyridinyl]-1,6-dihydro-7H-pyrazolo[4,3-d]pyrimidin-7-one] | 182 to 183 | – | – |
| CCCOc1ccc(S(C)(=O)=O)cc1-c1nc2c(CC)nn(CCN(C(C)C)C(C)C)c2c(=O)[nH]1 [Example 24, 1-[2-(Diisopropylamino)ethyl]-3-ethyl-5-[5-(methylsulfonyl)-2-propoxyphenyl]-1,6-dihydro-7H-pyrazolo[4,3-d]pyrimidin-7-one] | – | < 10 | 6.7 |
| CCCOc1ccc(S(C)(=O)=O)cc1-c1nc2c(CC)n(CCN(C(C)C)C(C)C)nc2c(=O)[nH]1 [Example 25, 2-[2-(diisopropylamino)ethyl]-3-ethyl-5-[5-(methylsulfonyl)-2-propoxyphenyl]-2,6-dihydro-7H-pyrazolo[4,3-d]pyrimidin-7-one] | – | < 10 | 5.4 |
| CCCOc1ccc(S(=O)(=O)CC)cc1-c1nc2c(CC)nn(C[C@@H]3CCCN3C)c2c(=O)[nH]1 [Example 26, 3-Ethyl-5-[5-(ethylsulfonyl)-2-propoxyphenyl]-1-{[(2S)-1-methylpyrrolidinyl]methyl}-1,6-dihydro-7H-pyrazolo[4,3-d]pyrimidin-7-one] | – | – | 18.3 |
| CCCOc1ccc(S(C)(=O)=O)cc1-c1nc2c(CC)nn(C[C@@H]3CCCCN3C)c2c(=O)[nH]1 [Example 28, 3-Ethyl-1-{[(2S)-1-methylpiperidinyl]methyl}-5-[5-(methylsulfonyl)-2-propoxyphenyl]-1,6-dihydro-7H-pyrazolo[4,3-d]pyrimidin-7-one] | – | < 10 | 3.6 |
| C=CCc1nc(CC)n2nc(-c3cc(S(C)(=O)=O)ccc3OCCCC)[nH]c(=O)c12 [Example 29] | 192 to 194 | < 10 | 6.7 |
